Source: PubChem BioAssay (NCI)
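Briefly, cells in 96-well plates were exposed to five compound concentrations for 48 h, and endpoints were estimated by linear interpolation. GI50: concentration for 50% inhibition of growth. TGI is the concentration that stops growth completely.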

How the values were obtained:
Test in all cases: inhibition of tumour cell growth, NCI panel, 48 h
UO-31 renal = test system: UO-31 renal
ACHN renal = test system: ACHN renal
MDA-MB-231 breast = test system: MDA-MB-231 breast
MCF7 breast = test system: MCF7 breast
OVCAR-8 ovarian = test system: OVCAR-8 ovarian
RXF 393 renal = test system: RXF 393 renal
A549 NSCLC = test system: A549 NSCLC
SF-539 CNS = test system: SF-539 CNS
SK-MEL-28 melanoma = test system: SK-MEL-28 melanoma
U251 CNS = test system: U251 CNS
SNB-75 CNS = test system: SNB-75 CNS
786-0 renal = test system: 786-0 renal
LOX IMVI melanoma = test system: LOX IMVI melanoma
K-562 leukemia = test system: K-562 leukemia
RPMI-8226 leukemia = test system: RPMI-8226 leukemia
OVCAR-3 ovarian = test system: OVCAR-3 ovarian
NCI-H522 lung = test system: NCI-H522 lung
SK-OV-3 ovarian = test system: SK-OV-3 ovarian
SF-268 CNS = test system: SF-268 CNS
SNB-19 CNS = test system: SNB-19 CNS
SN12C renal = test system: SN12C renal
CAKI-1 renal = test system: CAKI-1 renal
MOLT-4 leukemia = test system: MOLT-4 leukemia
SW-620 colon = test system: SW-620 colon
SK-MEL-2 melanoma = test system: SK-MEL-2 melanoma
M14 melanoma = test system: M14 melanoma
PC-3 prostate = test system: PC-3 prostate
HCT-116 colon = test system: HCT-116 colon
EKVX NSCLC = test system: EKVX NSCLC
NCI/ADR-RES ovarian = test system: NCI/ADR-RES ovarian
NCI-H460 lung = test system: NCI-H460 lung
TK-10 renal = test system: TK-10 renal
OVCAR-4 ovarian = test system: OVCAR-4 ovarian
T-47D breast = test system: T-47D breast
SK-MEL-5 melanoma = test system: SK-MEL-5 melanoma
OVCAR-5 ovarian = test system: OVCAR-5 ovarian
HOP-92 NSCLC = test system: HOP-92 NSCLC
MALME-3M melanoma = test system: MALME-3M melanoma
UACC-257 melanoma = test system: UACC-257 melanoma
HCC-2998 colon = test system: HCC-2998 colon
HL-60(TB) leukemia = test system: HL-60(TB) leukemia
NCI-H226 lung = test system: NCI-H226 lung
HCT-15 colon = test system: HCT-15 colon
KM12 colon = test system: KM12 colon
IGROV1 ovarian = test system: IGROV1 ovarian
COLO 205 colon = test system: COLO 205 colon
HOP-62 NSCLC = test system: HOP-62 NSCLC
SR leukemia = test system: SR leukemia
HS 578T breast = test system: HS 578T breast
BT-549 breast = test system: BT-549 breast
NCI-H23 lung = test system: NCI-H23 lung
UACC-62 melanoma = test system: UACC-62 melanoma
A498 renal = test system: A498 renal
DU-145 prostate = test system: DU-145 prostate
MDA-MB-435 = test system: MDA-MB-435
SF-295 CNS = test system: SF-295 CNS
HT29 colon = test system: HT29 colon

## Clc1ccc2c(c1)C(Br)c1cc(Cl)cc(Cl)c1-2 (centres undefined)
UO-31 renal
  GI50: 67.7 µM
  TGI: > 100 µM
ACHN renal
  GI50: > 100 µM
  TGI: > 100 µM
MDA-MB-231 breast
  GI50: 30.8 µM
  TGI: > 100 µM
MCF7 breast
  GI50: 20.5 µM
  TGI: > 100 µM
OVCAR-8 ovarian
  GI50: 28.6 µM
  TGI: > 100 µM
RXF 393 renal
  GI50: 27 µM
  TGI: 86.6 µM
A549 NSCLC
  GI50: > 100 µM
  TGI: > 100 µM
SF-539 CNS
  GI50: 82.5 µM
  TGI: > 100 µM
SK-MEL-28 melanoma
  GI50: > 100 µM
  TGI: > 100 µM
U251 CNS
  GI50: > 100 µM
  TGI: > 100 µM
SNB-75 CNS
  GI50: 19 µM
  TGI: > 100 µM
786-0 renal
  GI50: > 100 µM
  TGI: > 100 µM
LOX IMVI melanoma
  GI50: 2.46 µM
  TGI: > 100 µM
K-562 leukemia
  GI50: 8.74 µM
  TGI: > 100 µM
RPMI-8226 leukemia
  GI50: 38.9 µM
  TGI: > 100 µM
OVCAR-3 ovarian
  GI50: > 100 µM
  TGI: > 100 µM
NCI-H522 lung
  GI50: 2.53 µM
  TGI: > 100 µM
SK-OV-3 ovarian
  GI50: > 100 µM
  TGI: > 100 µM
SF-268 CNS
  GI50: 29.9 µM
  TGI: > 100 µM
SNB-19 CNS
  GI50: > 100 µM
  TGI: > 100 µM
SN12C renal
  GI50: 3.84 µM
  TGI: > 100 µM
CAKI-1 renal
  GI50: 56.4 µM
  TGI: > 100 µM
MOLT-4 leukemia
  GI50: 10.8 µM
  TGI: > 100 µM
SW-620 colon
  GI50: 5.46 µM
  TGI: > 100 µM
SK-MEL-2 melanoma
  GI50: 33.8 µM
  TGI: > 100 µM
M14 melanoma
  GI50: 3.35 µM
  TGI: 35.7 µM
PC-3 prostate
  GI50: > 100 µM
  TGI: > 100 µM
HCT-116 colon
  GI50: 8.74 µM
  TGI: > 100 µM
EKVX NSCLC
  GI50: 2.82 µM
  TGI: > 100 µM
NCI/ADR-RES ovarian
  GI50: 42.7 µM
  TGI: > 100 µM
NCI-H460 lung
  GI50: > 100 µM
  TGI: > 100 µM
TK-10 renal
  GI50: > 100 µM
  TGI: > 100 µM
OVCAR-4 ovarian
  GI50: 71.5 µM
  TGI: > 100 µM
T-47D breast
  GI50: > 100 µM
  TGI: > 100 µM
SK-MEL-5 melanoma
  GI50: 6.81 µM
  TGI: 72.3 µM
OVCAR-5 ovarian
  GI50: > 100 µM
  TGI: > 100 µM
HOP-92 NSCLC
  GI50: 12.4 µM
  TGI: > 100 µM
MALME-3M melanoma
  GI50: 3.49 µM
  TGI: > 100 µM
UACC-257 melanoma
  GI50: > 100 µM
  TGI: > 100 µM
HCC-2998 colon
  GI50: > 100 µM
  TGI: > 100 µM
HL-60(TB) leukemia
  GI50: > 100 µM
  TGI: > 100 µM
NCI-H226 lung
  GI50: 2.75 µM
  TGI: 34.8 µM
HCT-15 colon
  GI50: 74.5 µM
  TGI: > 100 µM
KM12 colon
  GI50: > 100 µM
  TGI: > 100 µM
IGROV1 ovarian
  GI50: 18.6 µM
  TGI: > 100 µM
COLO 205 colon
  GI50: > 100 µM
  TGI: > 100 µM
HOP-62 NSCLC
  GI50: > 100 µM
  TGI: > 100 µM
SR leukemia
  GI50: 4.34 µM
  TGI: > 100 µM
HS 578T breast
  GI50: > 100 µM
  TGI: > 100 µM
BT-549 breast
  GI50: 3.56 µM
  TGI: 41.6 µM
NCI-H23 lung
  GI50: 2.83 µM
  TGI: 36.8 µM
UACC-62 melanoma
  GI50: 39.9 µM
  TGI: > 100 µM
A498 renal
  GI50: > 100 µM
  TGI: > 100 µM
DU-145 prostate
  GI50: > 100 µM
  TGI: > 100 µM
MDA-MB-435
  GI50: 5.19 µM
  TGI: > 100 µM
SF-295 CNS
  GI50: > 100 µM
  TGI: > 100 µM
HT29 colon
  GI50: > 100 µM
  TGI: > 100 µM
